Data taken from patent US20230416242A1, “DOUBLE DEGRADERS AND USES THEREOF” (Kymera Therapeutics, Inc., priority 2020, published 2023).

The compounds below were run against T1, IRAK4 (Homo sapiens, UniProt Q9NWZ3) (assay: IRAK4 MSD degradation in OCI-LY10). Settings: OCI-LY10 cells, 24 hrs, Meso Scale Discovery.
T1 construct: endogenous in cells; host or cells: OCI-LY10
T1 sequence (Q9NWZ3 1-460): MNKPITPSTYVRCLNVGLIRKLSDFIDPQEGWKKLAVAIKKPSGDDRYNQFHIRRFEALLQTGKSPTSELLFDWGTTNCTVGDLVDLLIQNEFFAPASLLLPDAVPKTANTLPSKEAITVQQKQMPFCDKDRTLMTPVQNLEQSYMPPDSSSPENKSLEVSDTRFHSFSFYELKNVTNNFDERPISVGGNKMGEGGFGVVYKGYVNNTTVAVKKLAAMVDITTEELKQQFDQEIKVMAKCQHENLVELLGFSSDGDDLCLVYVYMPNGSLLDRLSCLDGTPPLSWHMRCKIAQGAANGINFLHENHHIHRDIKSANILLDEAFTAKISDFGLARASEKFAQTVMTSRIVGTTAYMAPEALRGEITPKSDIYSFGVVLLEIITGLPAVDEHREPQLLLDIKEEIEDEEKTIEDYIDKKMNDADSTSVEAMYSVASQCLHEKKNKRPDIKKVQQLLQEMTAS
Format: cell-based
Experimental: Degradation of IRAK4 in OCI-LY10 was quantitatively measured using Meso Scale Discovery technology. OCI-LY10 cells were seeded in 96-well plates (Coming 3799) with a density of 300,000 cells per well in 100 μL fresh media. Compounds were then added to the assay plates with a final top concentration of 1 to 10 μM in a 1:3 dilution series with total of 8 doses. The assay plates were then incubated for 4 to 24 hours at 37° C. under 5% CO2. The assay plates were then centrifuged for 5 minutes and the cell pellets were treated with 100 μL/well RIPA lysis buffer (Boston BioProducts BP-115D) with proteinase inhibitors. To prepare MSD assay plates (Meso Scale Discovery Catalog number L15XA-3), the plates were coated with […] capture antibody (mouse Anti-IRAK4 antibody [2H9], ab119942) in PBS, at 40 μL/well. The plates were then incubated overnight at 4° C., washed 3 times with 150 μL/well TBST buffer (Cell Signaling Technology, Catalog number 9997S) and blocked with 150 μL/well blocking buffer (Meso Scale Discovery Catalog number R93BA-4). Cell lysates were then added to MSD assay plates and the plates were incubated at room temperature for 1 hour. The plates were then washed 3 times with 150 µL/well TBST buffer and 25 μL/well primary detection antibody (rabbit Anti-IRAK4 antibody [Y279], from Abcam. Catalog number ab32511, 1 μg/mL). The assay plates were then incubated at room temperature for 1 hour, washed 3 times with 150 μL/well TBST buffer and 25 μL/well secondary detection antibody, SULFO-TAG anti-rabbit antibody were added (anti rabbit antibody from Meso Scale Discovery, Catalog number R32AB-1, 1 μg/mL). The assay plates were then incubated at room temperature for 1 hour, washed 3 times with 150 μL/well TBST buffer, and 150 μL/well MSD reading buffer (Meso Scale Discovery catalog number R92TC-2) was added. The plates were then analyzed by a MSD reader (Meso Scale Discovery, Model Quick Plex SQ 120). The data was then analyzed by software Prism 7.0 from GraphPad and the dose-depended IRAK4 degradation were fit using a three-parameter logistic equation to calculate DC50.
The letter codes for IRAK4 DC50 include: A (<1 μM); B (1-10 μM); and C ([…]).

SMILES	DC50 [nM]
Cc1ncsc1-c1ccc(CNC(=O)[C@@H]2C[C@@H](O)CN2C(=O)[C@@H](NC(=O)COCCOCCN2CCN(C(=O)c3ccc(Nc4nc(-c5cccc(NC(=O)c6ccc(C(C)(C)C)cc6)c5C)cn(C)c4=O)cc3)CC2)C(C)(C)C)c(OCCOCCN(C)C[C@H]2CC[C@H](n3cc4cc(NC(=O)c5cccc(C(F)(F)F)n5)c(C(C)(C)O)cc4n3)CC2)c1 [Compound I-18]	1000 to 10000
NC(=O)c1ncc(N2CCCCC2)nc1Nc1ccc(C2CCN(CCCCN(CCC3CCN(C[C@H]4CC[C@H](n5cc(NC(=O)c6cnn7ccc(N8CCOCC8)nc67)c(C(F)F)n5)CC4)CC3)c3cccc4c3C(=O)N(C3CCC(=O)NC3=O)C4=O)CC2)cc1 (stereo partly shown) [Compound I-6]	1000 to 10000
Cc1ncsc1-c1ccc(CNC(=O)[C@@H]2C[C@@H](O)CN2C(=O)[C@@H](NC(=O)COCCOCCN2CCC(c3ccc(Nc4nc(N5CCCCC5)cnc4C(N)=O)cc3)CC2)C(C)(C)C)c(OCCOCCN(C)C[C@H]2CC[C@H](n3cc4cc(NC(=O)c5cccc(C(F)(F)F)n5)c(C(C)(C)O)cc4n3)CC2)c1 [Compound I-17]	1000 to 10000
Cn1c(=O)n(C2CCC(=O)NC2=O)c2cccc(CCCCN(CCNC(=O)[C@H]3CC[C@H](n4cc5cc(NC(=O)c6cccc(C(F)(F)F)n6)c(C(C)(C)O)cc5n4)CC3)CC(=O)N3CCC(c4ccc(Nc5nc(N6CCCCC6)cnc5C(N)=O)cc4)CC3)c21 (stereo partly shown) [Compound I-15]	< 1000
CC(C)(O)c1cc2nc([C@H]3CC[C@H](CN4CC5(CC(C(CNc6cccc7c6C(=O)N(C6CCC(=O)NC6=O)C7=O)CN6CCC(c7ccc(Nc8nc(N9CCCCC9)cnc8C(N)=O)cc7)CC6)C5)C4)CC3)sc2cc1NC(=O)c1cccc(C(F)(F)F)n1 (stereo partly shown) [Compound I-7]	1000 to 10000

Other lines, results leading:

DC50 [nM]	SMILES
< 1000	CC(C)(O)c1cc2nn([C@H]3CC[C@H](CN4CCC(CCN(CCCCN5CCC(c6ccc(Nc7nc(N8CCCCC8)cnc7C(N)=O)cc6)CC5)c5cccc6c5C(=O)N(C5CCC(=O)NC5=O)C6=O)CC4)CC3)cc2cc1NC(=O)c1cccc(C(F)(F)F)n1 (stereo partly shown) [Compound I-4]
< 1000	NC(=O)c1ncc(N2CCCCC2)nc1Nc1ccc(C2CCN(CC(CNc3cccc4c3C(=O)N(C3CCC(=O)NC3=O)C4=O)C3CC4(C3)CN(C[C@H]3CC[C@H](n5cc(NC(=O)c6cnn7ccc(N8CCOCC8)nc67)c(C(F)F)n5)CC3)C4)CC2)cc1 (stereo partly shown) [Compound I-9]
< 1000	CC(C)(O)c1cc2nc([C@H]3CC[C@H](CN4CCC(CCN(CCCCN5CCC(c6ccc(Nc7nc(N8CCCCC8)cnc7C(N)=O)cc6)CC5)c5cccc6c5C(=O)N(C5CCC(=O)NC5=O)C6=O)CC4)CC3)sc2cc1NC(=O)c1cccc(C(F)(F)F)n1 (stereo partly drawn) [Compound I-5, 3-((4-(1-(4-((2-(2,6-Dioxopiperidin-3-yl)-1,3-dioxoisoindolin-4-yl)(2-(1-(((1R,4R)-4-(5-(2-hydroxypropan-2-yl)-6-(6-(trifluoromethyl)picolinamido)benzo[d]thiazol-2-yl)cyclohexyl)methyl)piperidin-4-yl)ethyl)amino)butyl)piperidin-4-yl)phenyl)amino)-5-(piperidin-1-yl)pyrazine-2-carboxamide]
< 1000	Cn1c(=O)n(C2CCC(=O)NC2=O)c2cccc(CCCCN(CCNC(=O)[C@H]3CC[C@H](n4cc5cc(NC(=O)c6cccc(C(F)(F)F)n6)c(C(C)(C)O)cc5n4)CC3)CC(=O)N3CC(N4CCC(c5ccc(Nc6nc(N7CCCCC7)cnc6C(N)=O)cc5)CC4)C3)c21 (stereo partly drawn) [Compound I-14, 3-((4-(1-(1-(2-((4-(1-(2,6-Dioxopiperidin-3-yl)-3-methyl-2-oxo-2,3-dihydro-1H-benzo[d]imidazole-4-yl)butyl)(2-((1R,4R)-4-(6-(2-hydroxypropan-2-yl)-5-(6-(trifluoromethyl)picolinamido)-2H-indazol-2-yl)cyclohexanecarboxamido)ethyl)amino)acetyl)azetidin-3-yl)piperidin-4-yl)phenyl)amino)-5-(piperidin-1-yl)pyrazine-2-carboxamide]
< 1000	CC(C)(O)c1cc2nn([C@H]3CC[C@H](CN4CC5(CC(C(CNc6cccc7c6C(=O)N(C6CCC(=O)NC6=O)C7=O)CN6CCC(c7ccc(Nc8nc(N9CCCCC9)cnc8C(N)=O)cc7)CC6)C5)C4)CC3)cc2cc1NC(=O)c1cccc(C(F)(F)F)n1 (stereo partly shown) [Compound I-8]
